Measured values reported in PubChem BioAssay (NCI).
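Dose response: 5 concentrations. Exposure: 48 h. Format: 96-well plates. Endpoint: linear interpolation; highest concentration if not reached. At the TGI there is no net growth.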

Columns and labels:
Assay in all cases: DTP human tumour cell line panel, 48 h
MOLT-4 leukemia = system: MOLT-4 leukemia
RXF 393 renal = system: RXF 393 renal
UACC-257 melanoma = system: UACC-257 melanoma
NCI/ADR-RES ovarian = system: NCI/ADR-RES ovarian
HT29 colon = system: HT29 colon
786-0 renal = system: 786-0 renal
CAKI-1 renal = system: CAKI-1 renal
OVCAR-4 ovarian = system: OVCAR-4 ovarian
NCI-H23 lung = system: NCI-H23 lung
OVCAR-3 ovarian = system: OVCAR-3 ovarian
SK-MEL-5 melanoma = system: SK-MEL-5 melanoma
T-47D breast = system: T-47D breast
NCI-H226 lung = system: NCI-H226 lung
EKVX NSCLC = system: EKVX NSCLC
SNB-19 CNS = system: SNB-19 CNS
K-562 leukemia = system: K-562 leukemia

| SMILES | TGI (MOLT-4 leukemia) [µM] | TGI (RXF 393 renal) [µM] | TGI (UACC-257 melanoma) [µM] | TGI (NCI/ADR-RES ovarian) [µM] | TGI (HT29 colon) [µM] | TGI (786-0 renal) [µM] | TGI (CAKI-1 renal) [µM] | TGI (OVCAR-4 ovarian) [µM] | TGI (NCI-H23 lung) [µM] | TGI (OVCAR-3 ovarian) [µM] | TGI (SK-MEL-5 melanoma) [µM] | TGI (T-47D breast) [µM] | TGI (NCI-H226 lung) [µM] | TGI (EKVX NSCLC) [µM] | TGI (SNB-19 CNS) [µM] | TGI (K-562 leukemia) [µM] |
| --- | --- | --- | --- | --- | --- | --- | --- | --- | --- | --- | --- | --- | --- | --- | --- | --- |
| CC(=O)NC1=NC(=O)/C(=C/c2ccc(/C=C3/C(=O)N=C(NC(C)=O)N3C)cc2)N1C | > 100 | > 100 | > 100 | > 100 | > 100 | > 100 | > 100 | > 100 | > 100 | > 100 | > 100 | > 100 | > 100 | > 100 | > 100 | – |
| C#CC(O)/C=C/CCCCCCC#CC/C=C\CC#CCCCCCCCCC(O)C#C (configuration not stated) | – | 31.6 | 15.1 | 10.2 | 12.3 | 5.01 | 9.08 | 15.7 | 4.17 | 24.5 | 9.71 | 36.3 | 35.5 | 10.3 | 37.5 | > 21.6 |
| COc1ccc(NCC(=O)Nn2c(-c3ccccc3)nc3ccccc3c2=O)cc1 | > 100 | > 10 | > 100 | 59.1 | > 100 | 73.6 | – | > 100 | > 100 | > 100 | 32.8 | > 100 | > 100 | > 100 | > 100 | > 100 |
| COc1cc(-c2c3c(cc4c2OCO4)[C@@H](Nc2ccc(-c4ccc(-c5ccc(N[C@@H]6c7cc8c(cc7C(c7cc(OC)c(O)c(OC)c7)[C@H]7C(=O)OC[C@H]67)OCO8)cc5)cc4)cc2)[C@H]2COC(=O)[C@@H]2C3)cc(OC)c1O (some centres not stated) | – | – | 80.4 | 5.92 | 5.62 | 6.22 | 8.8 | – | 20.7 | 4.85 | 7.58 | 65.2 | 6.31 | 25.2 | 12.5 | – |
| CC(C)(NC(=O)OCc1ccccc1)C(=O)OC(=O)C(C)(C)NC(=O)OCc1ccccc1 | > 100 | – | – | > 100 | > 100 | > 100 | > 100 | > 100 | > 100 | > 100 | > 100 | > 100 | > 100 | > 100 | > 100 | > 100 |
| CCc1c(-c2ccc(OC)cc2)oc(OC)c(C)c1=O | > 100 | > 100 | > 100 | > 100 | > 100 | > 100 | > 100 | > 100 | > 100 | > 100 | > 100 | > 100 | – | > 100 | > 100 | > 100 |
| O=C(Cn1c(C(=O)c2ccccc2)nc2ccccc21)c1ccccc1 | > 100 | > 100 | > 100 | > 100 | > 31.6 | > 100 | > 100 | > 100 | > 100 | > 100 | > 100 | > 100 | > 100 | > 100 | > 100 | – |
| C=C(Cl)C(Cl)(CCl)CCC(Br)C(C)(C)Br (configuration not stated) | > 10 | > 10 | – | – | > 10 | > 10 | > 10 | > 10 | > 10 | > 10 | > 10 | > 10 | > 10 | > 10 | > 10 | > 10 |
| COc1nc2ccc(COc3ccc(C(=O)O)cc3)cc2nc1OC | > 100 | – | > 100 | > 100 | > 100 | > 100 | > 100 | > 100 | > 100 | > 100 | > 100 | > 100 | > 100 | > 100 | > 100 | > 100 |
| O=C1CSC(c2cccc(Cl)c2)N1c1ccc(-c2ccc(-n3c(-c4ccccc4)nc4ccccc4c3=O)cc2)cc1 (configuration not stated) | > 100 | – | > 100 | > 100 | > 100 | > 100 | > 100 | > 100 | > 100 | > 100 | 84.4 | 97.9 | > 100 | > 100 | > 100 | > 100 |
| O=C(O)/C=C/c1ccc2c(c1)CC1(Cc3ccccc3C1)C2 | > 100 | > 100 | > 100 | > 100 | > 100 | > 100 | – | > 100 | > 100 | > 100 | > 100 | > 100 | 99.4 | > 100 | – | > 100 |
| N/C1=C/C(=O)NC(=O)c2c(c3ccccc3oc2=O)C1 | > 100 | > 100 | > 100 | > 100 | > 100 | > 100 | > 100 | > 100 | > 100 | > 100 | – | > 100 | > 100 | > 100 | > 100 | > 100 |
| CC(C)(C)N/N=C(\C(=O)NC1=C(Cl)C(=O)c2ccccc2C1=O)C1C=CCS1(=O)=O (configuration not stated) | > 100 | – | 26.5 | 71.9 | 29.3 | 54 | 45.6 | 30.7 | 24.2 | 9.38 | – | 37.8 | 27.9 | 30.2 | > 100 | > 100 |
| CC1OC2OC3C(OCC(O)C3O)OC(=O)[C@]34CCC(C)(C)CC3C3=CCC5[C@@]6(C)C[C@H](O)[C@H](OC7OC(CO)C(O)C(O)C7OC7OCC(OC(=O)CC(C)(O)CC(=O)OC1C(O)C2O)C(O)C7O)[C@@](C)(CO)C6CC[C@@]5(C)[C@]3(C)CC4 (some centres not stated) | 23.1 | – | 6.69 | 28.3 | 10.4 | 25.6 | – | – | 10.1 | 20.7 | 16.3 | 17.6 | 35.9 | – | 21.3 | – |
| CCn1c(CCl)nc2c1C(=O)c1ccccc1C2=O | – | 3.29 | 3.36 | 6.5 | 3.47 | > 100 | – | 3.08 | 3.12 | 3.05 | 2.84 | 4.21 | 0.473 | 6.44 | 3.59 | > 100 |
| CC(C)C1=CC(=O)[C@@](C)(C2[C@H](O)C[C@@]3(C)[C@@H]4CC=C5[C@@H](CC[C@@H](OC6OCC(O)C(O)C6OC6OC(C)C(O)C(O)C6O)C5(C)C)[C@]4(C)C(=O)C[C@]23C)O1 (some centres not stated) | > 100 | > 100 | – | > 100 | > 100 | > 100 | > 100 | > 100 | > 100 | > 100 | > 100 | > 100 | > 100 | > 100 | > 100 | > 100 |
| Cc1ccc(C2(c3ccc(F)cc3)OC(=O)c3ccccc32)c(O)c1 (configuration not stated) | 76.3 | – | 31 | 46.8 | > 100 | 32.1 | 24.9 | 41.1 | 44.9 | 17.9 | 33.8 | 28.1 | 76.2 | 92.1 | 38.1 | > 100 |
| Cc1ccc2nc(-c3ccc(C(C)(C)C)cc3)oc(=O)c2c1 | 39.3 | 88.5 | 46.2 | 54.2 | 38.3 | 68.2 | 39.6 | 90.3 | 68.1 | 60.9 | 27.6 | 83.4 | – | 69.8 | 74.2 | 51 |
| O=C1CSC(c2ccc(Cl)cc2Cl)N1c1ccc(Oc2ccc(Cl)cc2)c(Cl)c1 (configuration not stated) | 81.5 | – | > 100 | 55.1 | 30.6 | 50.1 | 98.1 | 78.6 | 69.6 | 65.9 | 43.6 | 90.1 | > 100 | 74 | > 100 | > 100 |
| CCCCCCCCCCCCCCCCNc1ccn(C2CC(O)C(COC(c3ccccc3)(c3ccccc3)c3ccc(OC)cc3)O2)c(=O)n1 (configuration not stated) | > 100 | > 100 | – | > 100 | > 100 | > 100 | > 100 | > 100 | > 100 | > 100 | > 100 | > 100 | > 100 | > 100 | > 100 | > 100 |
| COc1cc2c(/C=C3/C(=O)Nc4ccc(Cl)cc43)c(Cl)[nH]c2cc1C | 0.814 | 20.5 | 22.4 | 6.44 | 7.54 | 15.4 | 14.8 | 11.4 | 7.13 | 3.14 | 10.4 | 26.9 | 13.3 | – | 12.7 | 6.3 |
| O=C(O)[C@H](CCC[C@H]1C(=O)O[C@H](c2ccccc2)[C@H](c2ccccc2)N1C(=O)OCc1ccccc1)N[C@@H](c1ccccc1)[C@H](O)c1ccccc1 | 62 | 47.9 | > 100 | > 100 | > 100 | > 100 | > 100 | 75.9 | 85.4 | 48.4 | 43 | > 100 | – | > 100 | 61.3 | > 100 |
| NCCN1C(=O)c2ccccc2C1c1ccc(Cl)cc1 (configuration not stated) | > 100 | > 100 | > 100 | > 100 | > 100 | > 100 | > 100 | > 100 | > 100 | > 100 | > 100 | > 100 | – | > 100 | > 100 | > 100 |
| COc1cc2c(cc1OC)C(=O)/C(=C/c1cc(C)cc(C)c1)C2 | > 90.3 | 0.604 | > 100 | > 38 | 0.835 | > 44.6 | – | > 100 | > 68 | 1.04 | 0.932 | 45.6 | 0.617 | > 100 | > 89.1 | > 38 |
| CCOC(=O)c1c(SC(=O)c2ccc(OC)cc2)n(-c2ccccc2)c(=S)n(-c2ccccc2)c1=O | 64 | > 100 | > 100 | > 100 | > 100 | > 100 | > 100 | > 100 | > 100 | > 100 | – | > 100 | > 100 | > 100 | > 100 | > 100 |
| CNc1ncnc2c1nc(NC1CCCC1)n2C1OC(CO)C(O)C1O (configuration not stated) | > 100 | > 100 | – | > 100 | > 100 | > 100 | > 100 | > 100 | > 100 | > 100 | > 100 | > 100 | – | – | > 100 | – |
| C/C(=N\Nc1nc2ccccc2s1)c1cc2ccccc2cn1 | – | 16 | 57.8 | 42 | 11 | 9.35 | 17.6 | 62.2 | 18.1 | 6.96 | 11.9 | 23.2 | 7.56 | 69.4 | > 100 | – |
| COC1C(N(C)C)=C(c2ccccc2)C(=O)N2CCc3ccccc3C12 (configuration not stated) | > 100 | > 100 | > 100 | > 100 | > 100 | > 100 | > 100 | > 100 | > 100 | – | > 100 | > 100 | > 100 | > 100 | > 100 | – |
| O=C(/C=C(\C(=O)c1cccs1)c1cccs1)c1ccc(C(=O)/C=C(\C(=O)c2cccs2)c2cccs2)cc1 | > 100 | > 100 | > 100 | > 100 | > 100 | > 100 | > 100 | > 100 | – | – | > 100 | > 100 | > 100 | > 100 | > 100 | > 100 |
